Measurements from patent US8969004B2, “Detection of immobilized nucleic acid” (Life Technologies Corporation, priority 2004, dated 2015).
“Also recorded” adds a separate entry of the source. Where two headings read alike, the source gives them in different places.

What was measured:
[1] = system: Salmonella typhimurium histidine auxotrophs TA97a, TA98, TA100, TA102, TA1535, TA1537 and TA1538; assay: Salmonella/Mammalian Microsomal Reverse Mutation Assay (Ames Test); assay type: cell-based; conditions: for Ames test mutagenicity classification, early screens: early screens of nucleic acid complexing compounds; for increase in revertants compared to vehicle control (DMSO), TA97a: tester strain TA97a; for increase in revertants compared to vehicle control (DMSO), TA98: tester strain TA98; for increase in revertants compared to vehicle control (DMSO), TA100: tester strain TA100; for increase in revertants compared to vehicle control (DMSO), TA102: tester strain TA102; for increase in revertants compared to vehicle control (DMSO), TA1535: tester strain TA1535; for increase in revertants compared to vehicle control (DMSO), TA1537: tester strain TA1537; for increase in revertants compared to vehicle control (DMSO), TA1538: tester strain TA1538
Description: The Ames assay was performed using the method described by Ames (Ames et al Mutation Research 31 (1975) 347-364; Levin et al. PNAS 79 (1982) 7445-7449; Maron and Ames, Mutation Research 113 (1983) 173-215). Tester stains used were Salmonella typhimurium histidine auxotrophs TA97a, TA98, TA100, TA102, TA1535, TA1537 and TA1538. […] The test compounds, test vehicle and S9 (when appropriate) were combined with molten agar and then overlaid over a minimal agar plate. Following incubation at 37° C., revertant colonies were counted. When S9 was not used, 100 μl of tester strain and 50 μl of control or test compound were added to 2.5 ml of selective top agar. When S9 was used, 500 μl of S9 mix, 100 μl of tester strain and 50 μl of control or test compound was added to 2.0 ml of selective top agar. The top agar was then overlaid onto the surface of 25 ml of minimal bottom agar contained in a 15×100 mm Petri dish. The inverted plates were incubated for 52±4 hr at 37±2° C.
The number of revertants was counted and the test compounds were either considered non-mutagenic or mutagenic. The criteria for determining if a test compound was mutagenic was based on a 2-fold increase in mean revertants per plate for at least one tester strain (TA97a, TA98, TA100 and TA102) over the mean revertants per plate of the appropriate vehicle control. For tester strains TA1535, TA1537 and TA 1538 a positive mutant was identified by a 3-fold increase in mean revertants per plate compared to the appropriate vehicle control. In addition, the increase in the mean number of revertants per plate needed to be accompanied by a dose response to increasing concentrations of the test compound. […] Thiazole orange was also considered mutagenic for two of the tester strains in the absence of S9. Thus, compared to ethidium bromide, thiazole orange is 3-4 times less mutagenic and Compound 1 is 4-5 times less mutagenic. Ethidium bromide and Sybr Green I had previously been tested wherein Sybr Green I was considered a weak mutagen (Singer et al. Mutation Research 439 (1999) 37-47).

[2] = Hazardous Waste Screening Test (toxicity to aquatic life); assay type: in vivo, Pimephakes promelas; conditions: fathead minnow (Pimephakes promelas), in vivo, other: exposure in tank water containing the compound; fathead minnows; 96 hour exposure
Description: (§1) Compound 1 was tested to determine whether or not the compound was hazardous or toxic to aquatic life. Ten fathead minnows (Pimephakes promelas) were placed each in a 8 liter tank containing vehicle control and a concentration of Compound 1 at 250 mg/L, 500 mg/L and 750 mg/L. After a 96 hour exposure period the number of viable minnows were counted. The survival rate of the minnows for the control and Compound 1 was 100%. Thus, compound 1 has a LC50 value […], which is classified as not hazardous under CCR Title 22 acute toxicity to aquatic life.

[3] = system: fathead minnows (Pimephakes promelas); assay: as above; assay type: in vivo
Description: as §1

[4] = system: MRC5 human lung fibroblast cells; assay: Cell Permeability on Live Eukaryotic Cells; assay type: cell-based; conditions: 0.5, 1.0, 5.0 and 10.0 μM; 5 minutes at 37° C.; fluorescence microscopy
Description: MRC5 human lung fibroblast cells were harvested and grown in complete culture media (DMEM+10% FBS) for one day after seeding coverslips. Cells were then removed from complete media and placed in Hank's balanced salt solution w/sodium bicarbonate (HBSS) supplemented with 5 mM HEPES, 100 uM L-glutamine and 100 uM succinate containing varying concentrations of Compound 1. Concentrations tested included 0.5, 1.0, 5.0 and 10.0 μM. Cells were incubated for 5 minutes at 37° C./[…] Cells were washed 3×30 seconds in HBSS and mounted on microscope slides in HBSS and sealed with paraffin. After mounting, slides were examined on a Nikon Eclipse 800 upright fluorescent microscope and imaged with standard FITC and TRITC filter sets, a Princeton Instrument MicroMax cooled CCD camera, and Universal Imaging MetaMorph imaging software. […] Signal associated with Compound 1 is detectable with both FITC and TRITC filter sets with greater signal intensity using the FITC set. Regardless of concentration, nucleolar labeling seems to be the most prominent and appears to become slightly more prominent at lower concentrations. Off cell background was minimal in all cases.

[5] = NPDES testing for compliance with the Clean Water Act
Description: The testes were performed according to EPA protocols cited in Table 9.

[6] = system: DNA in a 1% agarose gel; assay: Detection of DNA separated and immobilized in an agarose gel; conditions: for ability to detect nucleic acid immobilized in a gel by electrophoresis: excited with UV light, about 300 nm
[7] = system: Syrian hamster embryo (SHE) cells; conditions: for MT Frequency (%) / RPE (relative plating efficiency): Syrian hamster, 7 day
[8] = system: cultured human lymphocytes; assay: Screening Assay for Chromosomal Aberrations in Cultured Human Peripheral Blood Mononuclear Cells (PBMC); assay type: cell-based
Description: Human venous blood from healthy adult volunteers was drawn in heparinized vacutainers. The whole blood cultures were initiated in 15 ml centrifuge tubes by adding approximately 0.3 ml of fresh heparinized blood into a sufficient volume of culture medium, to that the final volume was 5 mL in the assay with and without metabolic activation after the addition of the test compound. The culture medium was RPMI 1640 supplemented with approximately 20% heat-inactivated fetal bovine serum (FBS), penicillin (100 units/mL), streptomycin (100 μg/mL), L-glutamine (2 mM) and 2% phytohemagglutinin M (PHA-M). The cultures were incubated with loose caps at 37° C.±2° C. in a humidified chamber of approximately 5% CO2 in air.
The in vitro metabolic activation system consisted of a rat liver post-mitochondrial fraction (S9) and an energy-producing system (NADPH plus isocitric acid) (Maron and Ames, 113 Mutation Research (1983) 173-215).
Two days after culture initiation, the cultures were treated with the test compounds. […]
At the end of the incubation period the cultures were centrifuged, the supernatant discarded, and the cells swollen with 75 mM KCl, fixed in methanol:glacial acetic acid (3:1 v/v), dropped onto glass slides and air dried. The slides were stained with 5% Giemsa and air dried and then analyzed for mitotox index, chromosomal aberrations including polyploidy and endoreduplication.

[9] = system: Salmonella typhimurium histidine auxotrophs TA97a, TA98, TA100, TA102, TA1535, TA1537 and TA1538; conditions: cited from earlier work
[10] = system: Syrian hamster embryo (SHE) cells; assay: In Vitro Transformation of Syrian Hamster Embryo (SHE) Cells by 7-Day Exposure Screening Assay
[11] = in the presence of S9 (rat liver extract)

Row | SMILES | Ames test mutagenicity classification, early screens [1] | Ames test mutagenicity classification [1, 11] | increase in revertants compared to vehicle control (DMSO), TA97a [1] | increase in revertants compared to vehicle control (DMSO), TA98 [1] | increase in revertants compared to vehicle control (DMSO), TA100 [1] | increase in revertants compared to vehicle control (DMSO), TA102 [1] | increase in revertants compared to vehicle control (DMSO), TA1535 [1] | increase in revertants compared to vehicle control (DMSO), TA1537 [1] | increase in revertants compared to vehicle control (DMSO), TA1538 [1] | ability to detect nucleic acid immobilized in a gel by electrophoresis [6] | RPE (relative plating efficiency) ([7]; 0.04 μg/mL) [%] | RPE (relative plating efficiency) ([7]; 0.26 μg/mL) [%] | also measured
1 | CCC[n+]1ccc(/C=C2\Sc3ccccc3N2C)c2ccccc21 [Compound 1] | either mildly mutagenic or non-mutagenic | mild or non-mutagenic; also recorded: Weakly positive | 3.3 | 3.0 | 1.7 | 3.7 | 1.8 | 1.8 | 3.7 | able to detect nucleic acid | 97 | 25 | times less mutagenic compared to ethidium bromide ([1]; Ames test): 4-5 times; LC50 at 96 h [2]: > 500 mg/L; survival rate of the minnows ([3]; 250 mg/L, 500 mg/L and 750 mg/L, 96 hour exposure): 100%; hazard classification, acute toxicity to aquatic life ([3]; CCR Title 22): not hazardous; also recorded: non-hazardous to aquatic life; cell permeability in live cells [4]: cell permeable; compliance with the Clean Water Act and NPDES regulations [5]: complies; sensitivity of nucleic acid detection in a gel ([6]; 1% agarose gel, post-stained 30, 60 and 90 minutes, 1 μM in TBE, 62.5 ng to 30.52 pg DNA): at least as sensitive as ethidium bromide; MT Frequency (%) ([7]; 0.04 μg/mL): 0.731%; MT Frequency (%) ([7]; 0.05 μg/mL): 0.442%; RPE (relative plating efficiency) ([7]; 0.05 μg/mL): 120%; MT Frequency (%) ([7]; 0.2 μg/mL): 0.313%; RPE (relative plating efficiency) ([7]; 0.2 μg/mL): 85%; MT Frequency (%) ([7]; 0.26 μg/mL): 0.294%; MT Frequency (%) ([7]; 0.3 μg/mL): 0.144%; RPE (relative plating efficiency) ([7]; 0.3 μg/mL): 59%; MT Frequency (%) ([7]; 0.4 μg/mL): 1.304%; RPE (relative plating efficiency) ([7]; 0.4 μg/mL): 66%; MT Frequency (%) ([7]; 0.8 μg/mL): 0.635%; RPE (relative plating efficiency) ([7]; 0.8 μg/mL): 28%
2 | CC[n+]1c(-c2ccccc2)c2cc(N)ccc2c2ccc(N)cc21 [Ethidium bromide, ethidium bromide] | – | mutagenic | 4.4 | 68.0 | 1.6 | 2.0 | 1.4 | 15 | 80 | – | – | – | Chromosomal Aberrations Test, cultured human peripheral blood lymphocytes: result ([8]; with and without S9 metabolic activation): negative; Ames test mutagenicity classification (previously tested, literature) ([9]; McCann et al. 1975, Singer et al. 1999): mutagenic; RPE (relative plating efficiency) ([10]; 0.200 μg/mL): 85%; RPE (relative plating efficiency) ([10]; 0.400 μg/mL): 66%; RPE (relative plating efficiency) ([10]; 0.800 μg/mL): 28%; Transformation Test, Syrian hamster embryo (SHE) cells: result ([10]; morphological transformation vs vehicle control): positive
3 | CN1C=C/C(=C\c2sc3ccccc3[n+]2C)c2ccccc21 [Thiazole orange, thiazole orange] | either mildly mutagenic or non-mutagenic | mutagenic | 6.9 | 6.4 | 2.2 | 4.7 | 1.5 | 17.4 | 7.8 | able to detect nucleic acid | 97 | 25 | Ames test mutagenicity classification ([1]; in the absence of S9, two of the tester strains): mutagenic; Chromosomal Aberrations Test, cultured human peripheral blood lymphocytes: result [8]: negative; Transformation Test, Syrian hamster embryo (SHE) cells: result [7]: positive; RPE (relative plating efficiency) ([7]; 0.15 μg/mL): 52%
4 | CCCN(CCCN(C)C)c1cc(/C=C2/Sc3ccccc3N2C)c2ccccc2[n+]1-c1ccccc1 [Sybr Green I] | – | – | – | – | – | – | – | – | – | – | – | – | Ames test mutagenicity classification (previously tested, literature) [9]: weak mutagen
